Measured values: US7585523B2, “Composition and method to augment and sustain neurotransmitter production” (Targeted Medical Pharma, priority 2002, dated 2009)

Experiments:
[1] = test system: vasodilation of the skin (skin temperature); assay: Skin temperature probe test of skin vasodilation; assay type: in vivo, human; conditions: single ingredient given alone
Text: A person ingested the preparation designed to increase nitric oxide and acetylcholine in order to induce vasodilation (example 3). The preparation included choline, arginine, hawthorn berry, cocoa, dextrose, and cinnamon. A temperature probe designed to assess skin temperature measured vasodilation of the skin. The baseline skin temperature was 99 degrees Fahrenheit. Within fifteen minutes after ingestion of the capsules, the skin temperature increased to 101.3 degrees Fahrenheit and remained elevated for three hours. The next day arginine alone was given with no effect on skin temperature. The following day, choline alone was given with no effect on skin temperature. The preparation was given for two weeks when skin temperature was again measured. The skin temperature increased by two degrees and remained elevated for 60 minutes (FIG. 3).

[2] = test system: heart rate; assay: Continuous heart rate recording, one individual, components on successive days; assay type: in vivo, human; conditions: baseline as reference, time point not given (5, 10, 15, 30 minutes recorded), caffeine 150 mg, tyrosine 50 mg, histadine 100 mg, Ginkgo Biloba 120 mg, choline 120 mg
Method: To test the components of example 14, a series of experiments were performed using a continuous heart rate recorder. In an individual on successive days, heart rate was recoded as RR intervals in msec. The individual sat quietly for 30 minutes as baseline. Then on day 1 the combination of caffeine, 150 mg, with tyrosine, 50 mg, histadine, 100 mg, Ginkgo Biloba, 120 mg, and choline 120 mg was given. […] A percent change was calculated with the baseline as reference. On Day 2 caffeine alone was ingested using the same protocol. […] On day 5, ginkgo biloba was ingested.

[3] = test system: appetite; heart rate and heart rate variability; assay: Shell's earlier studies of attenuation of precursor formulations; assay type: in vivo; conditions: Shell's studies dating to 1987
[4] = test system: heart rate; assay: Continuous heart rate monitoring in 6 individuals, sustained effect; assay type: in vivo, human; conditions: baseline 0.0
Method: In 6 individuals, heart rate experiments were performed to show the sustained effect of the combination of the five elements outlined in this invention. […] They sat quietly for […] to establish a baseline. They then on subsequent days ingested combination of the 5 elements described in this invention. The results are depicted in table 2 and FIG. 5. Where C is caffeine 150 mg, T is tyrosine 50 mg, CH is choline 200 mg, and GB is ginkgo biloba 120 mg.

Structure (SMILES) | effect on skin temperature [1] | percent change in heart rate [2] | other results
N=C(N)NCCC[C@H](N)C(=O)O [arginine] | no effect | – | –
C[N+](C)(C)CCO [Choline] | no effect | −4% | –
N[C@@H](Cc1ccc(O)cc1)C(=O)O [Tyrosine] | – | 1% | time until appetite suppression is lost [3]: approximately 7 days
Cn1c(=O)c2c(ncn2C)n(C)c1=O [Caffeine] | – | 3% | heart rate, 5 min ([4]; 5 min after ingestion): 3.0; heart rate, 15 min ([4]; 15 min after ingestion): 1.3; heart rate, 30 min ([4]; 30 min after ingestion): 0.0
N[C@@H](Cc1c[nH]cn1)C(=O)O [Histadine] | – | 0.2% | –
